Experiments:
Rattus norvegicus = species on record: Rattus norvegicus; conditions: Compound concentration 10.0 uM
[1] = target: Casein kinase II subunit alpha (Homo sapiens) (UniProt P68400); conditions: Compound concentration 1000.0 nM
[2] = target: Serine/threonine-protein kinase tousled-like 2 (Homo sapiens) (UniProt Q86UE8); conditions: Compound concentration 1000.0 nM
[3] = target: Serine/threonine-protein kinase ULK2 (Homo sapiens) (UniProt Q8IYT8); conditions: Compound concentration 1000.0 nM
[4] = test system: Tyrosine-protein kinase ABL1 (Homo sapiens), P00519 [T315I]; conditions: Compound concentration 1000.0 nM
[5] = target: Casein kinase I isoform epsilon (Homo sapiens) (UniProt P49674); conditions: Compound concentration 1000.0 nM
[6] = target: cAMP-dependent protein kinase catalytic subunit PRKX (Homo sapiens) (UniProt P51817); conditions: Compound concentration 1000.0 nM
[7] = target: Mitogen-activated protein kinase kinase kinase 12 (Homo sapiens) (UniProt Q12852); conditions: Compound concentration 1000.0 nM
[8] = target: MAP/microtubule affinity-regulating kinase 4 (Homo sapiens) (UniProt Q96L34); conditions: Compound concentration 1000.0 nM
[9] = target: Tyrosine-protein kinase ITK/TSK (Homo sapiens) (UniProt Q08881); conditions: Compound concentration 1000.0 nM
[10] = target: Serine/threonine-protein kinase 3 (Homo sapiens) (UniProt Q13188); conditions: Compound concentration 1000.0 nM
[11] = target: Serine/threonine-protein kinase PAK 1 (Homo sapiens) (UniProt Q13153); conditions: Compound concentration 1000.0 nM
[12] = target: 5-hydroxytryptamine receptor 2A (Homo sapiens) (UniProt P28223); conditions: Compound concentration 10.0 uM
[13] = target: Bone morphogenetic protein receptor type-2 (Homo sapiens) (UniProt Q13873); conditions: Compound concentration 1000.0 nM
[14] = target: Serine/threonine-protein kinase PLK2 (Homo sapiens) (UniProt Q9NYY3); conditions: Compound concentration 1000.0 nM
[15] = test system: Proto-oncogene tyrosine-protein kinase receptor Ret (Homo sapiens), P07949 [V804M]; conditions: Compound concentration 1000.0 nM
[16] = target: Glycogen synthase kinase-3 alpha (Homo sapiens) (UniProt P49840); conditions: Compound concentration 1000.0 nM
[17] = target: Calcium/calmodulin-dependent protein kinase type 1D (Homo sapiens) (UniProt Q8IU85); conditions: Compound concentration 1000.0 nM
[18] = target: Serine/threonine-protein kinase 25 (Homo sapiens) (UniProt O00506); conditions: Compound concentration 1000.0 nM
[19] = target: T1, Muscarinic acetylcholine receptor M5 (Homo sapiens) (UniProt P08912); conditions: Compound concentration 10.0 uM
T1 sequence (whole entry): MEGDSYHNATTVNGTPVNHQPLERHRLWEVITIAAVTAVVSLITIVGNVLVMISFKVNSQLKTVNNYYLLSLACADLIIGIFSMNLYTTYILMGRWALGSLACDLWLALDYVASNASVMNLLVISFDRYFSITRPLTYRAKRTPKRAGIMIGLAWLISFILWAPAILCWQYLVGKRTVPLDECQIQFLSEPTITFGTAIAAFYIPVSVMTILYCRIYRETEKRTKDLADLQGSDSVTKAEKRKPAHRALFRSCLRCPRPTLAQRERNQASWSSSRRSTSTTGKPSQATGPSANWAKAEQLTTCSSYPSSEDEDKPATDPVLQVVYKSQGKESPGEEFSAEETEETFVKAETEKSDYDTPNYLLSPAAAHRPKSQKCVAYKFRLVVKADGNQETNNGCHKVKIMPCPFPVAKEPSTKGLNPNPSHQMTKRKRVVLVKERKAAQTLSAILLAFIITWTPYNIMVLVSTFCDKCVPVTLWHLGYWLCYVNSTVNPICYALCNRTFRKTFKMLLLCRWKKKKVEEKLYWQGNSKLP

[20] = target: Serine/threonine-protein kinase 10 (Homo sapiens) (UniProt O94804); conditions: Compound concentration 1000.0 nM
[21] = target: Serine/threonine-protein kinase RIO1 (Homo sapiens) (UniProt Q9BRS2); conditions: Compound concentration 1000.0 nM
[22] = target: Leukocyte tyrosine kinase receptor (Homo sapiens) (UniProt P29376); conditions: Compound concentration 1000.0 nM
[23] = target: Death-associated protein kinase 1 (Homo sapiens) (UniProt P53355); conditions: Compound concentration 1000.0 nM
[24] = target: Ephrin type-B receptor 1 (Homo sapiens) (UniProt P54762); conditions: Compound concentration 1000.0 nM
[25] = target: Angiopoietin-1 receptor (Homo sapiens) (UniProt Q02763); conditions: Compound concentration 1000.0 nM
[26] = target: Ephrin type-B receptor 6 (Homo sapiens) (UniProt O15197); conditions: Compound concentration 1000.0 nM
[27] = target: Dual specificity protein kinase CLK3 (Homo sapiens) (UniProt P49761); conditions: Compound concentration 1000.0 nM
[28] = target: Mitogen-activated protein kinase 4 (Homo sapiens) (UniProt P31152); conditions: Compound concentration 1000.0 nM
[29] = target: Homeodomain-interacting protein kinase 4 (Homo sapiens) (UniProt Q8NE63); conditions: Compound concentration 1000.0 nM
[30] = target: 5-hydroxytryptamine receptor 1D (Homo sapiens) (UniProt P28221); conditions: Compound concentration 10.0 uM
[31] = target: D(1A) dopamine receptor (Homo sapiens) (UniProt P21728); conditions: Compound concentration 10.0 uM
[32] = target: Protein kinase C eta type (Homo sapiens) (UniProt P24723); conditions: Compound concentration 1000.0 nM
[33] = target: Serine/threonine-protein kinase SIK3 (Homo sapiens) (UniProt Q9Y2K2); conditions: Compound concentration 1000.0 nM
[34] = test system: Mast/stem cell growth factor receptor Kit (Homo sapiens), P10721 [V559D]; conditions: Compound concentration 1000.0 nM
[35] = target: Protein-tyrosine kinase 6 (Homo sapiens) (UniProt Q13882); conditions: Compound concentration 1000.0 nM
[36] = target: Serine/threonine-protein kinase WNK2 (Homo sapiens) (UniProt Q9Y3S1); conditions: Compound concentration 1000.0 nM
[37] = test system: Phosphatidylinositol 4,5-bisphosphate 3-kinase catalytic subunit alpha isoform (Homo sapiens), P42336 [H1047Y]; conditions: Compound concentration 1000.0 nM

Chain of Protein kinase C eta type (Homo sapiens) (P24723 whole entry): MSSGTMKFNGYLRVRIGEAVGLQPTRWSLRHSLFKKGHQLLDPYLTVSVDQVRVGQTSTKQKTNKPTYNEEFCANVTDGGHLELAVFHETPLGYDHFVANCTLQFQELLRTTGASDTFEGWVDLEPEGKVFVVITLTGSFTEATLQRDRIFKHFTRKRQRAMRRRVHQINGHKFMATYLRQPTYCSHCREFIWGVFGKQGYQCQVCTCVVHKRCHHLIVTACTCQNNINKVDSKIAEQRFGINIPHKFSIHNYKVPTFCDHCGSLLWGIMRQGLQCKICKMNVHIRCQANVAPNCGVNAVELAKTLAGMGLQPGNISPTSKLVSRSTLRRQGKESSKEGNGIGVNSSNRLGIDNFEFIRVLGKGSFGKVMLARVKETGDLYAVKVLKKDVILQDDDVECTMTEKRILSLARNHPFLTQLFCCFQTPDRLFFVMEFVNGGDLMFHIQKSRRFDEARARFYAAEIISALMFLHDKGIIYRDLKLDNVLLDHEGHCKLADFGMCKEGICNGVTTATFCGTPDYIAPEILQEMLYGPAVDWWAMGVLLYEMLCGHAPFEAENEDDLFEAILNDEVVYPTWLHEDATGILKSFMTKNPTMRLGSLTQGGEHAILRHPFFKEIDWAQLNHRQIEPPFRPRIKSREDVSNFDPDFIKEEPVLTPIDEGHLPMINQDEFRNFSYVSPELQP
Chain of Casein kinase I isoform epsilon (Homo sapiens) (P49674 whole entry, looked up, canonical isoform): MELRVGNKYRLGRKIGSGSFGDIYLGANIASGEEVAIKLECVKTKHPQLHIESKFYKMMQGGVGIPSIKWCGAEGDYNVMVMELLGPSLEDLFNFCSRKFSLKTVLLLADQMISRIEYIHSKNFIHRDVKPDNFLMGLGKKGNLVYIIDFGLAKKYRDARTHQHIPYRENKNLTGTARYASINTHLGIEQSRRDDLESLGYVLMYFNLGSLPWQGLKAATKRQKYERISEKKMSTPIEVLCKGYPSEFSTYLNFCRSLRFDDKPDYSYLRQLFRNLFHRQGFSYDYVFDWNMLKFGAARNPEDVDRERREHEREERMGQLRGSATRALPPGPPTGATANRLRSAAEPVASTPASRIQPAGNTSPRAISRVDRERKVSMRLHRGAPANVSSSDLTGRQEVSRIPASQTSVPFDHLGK
Chain of Bone morphogenetic protein receptor type-2 (Homo sapiens) (Q13873 whole entry): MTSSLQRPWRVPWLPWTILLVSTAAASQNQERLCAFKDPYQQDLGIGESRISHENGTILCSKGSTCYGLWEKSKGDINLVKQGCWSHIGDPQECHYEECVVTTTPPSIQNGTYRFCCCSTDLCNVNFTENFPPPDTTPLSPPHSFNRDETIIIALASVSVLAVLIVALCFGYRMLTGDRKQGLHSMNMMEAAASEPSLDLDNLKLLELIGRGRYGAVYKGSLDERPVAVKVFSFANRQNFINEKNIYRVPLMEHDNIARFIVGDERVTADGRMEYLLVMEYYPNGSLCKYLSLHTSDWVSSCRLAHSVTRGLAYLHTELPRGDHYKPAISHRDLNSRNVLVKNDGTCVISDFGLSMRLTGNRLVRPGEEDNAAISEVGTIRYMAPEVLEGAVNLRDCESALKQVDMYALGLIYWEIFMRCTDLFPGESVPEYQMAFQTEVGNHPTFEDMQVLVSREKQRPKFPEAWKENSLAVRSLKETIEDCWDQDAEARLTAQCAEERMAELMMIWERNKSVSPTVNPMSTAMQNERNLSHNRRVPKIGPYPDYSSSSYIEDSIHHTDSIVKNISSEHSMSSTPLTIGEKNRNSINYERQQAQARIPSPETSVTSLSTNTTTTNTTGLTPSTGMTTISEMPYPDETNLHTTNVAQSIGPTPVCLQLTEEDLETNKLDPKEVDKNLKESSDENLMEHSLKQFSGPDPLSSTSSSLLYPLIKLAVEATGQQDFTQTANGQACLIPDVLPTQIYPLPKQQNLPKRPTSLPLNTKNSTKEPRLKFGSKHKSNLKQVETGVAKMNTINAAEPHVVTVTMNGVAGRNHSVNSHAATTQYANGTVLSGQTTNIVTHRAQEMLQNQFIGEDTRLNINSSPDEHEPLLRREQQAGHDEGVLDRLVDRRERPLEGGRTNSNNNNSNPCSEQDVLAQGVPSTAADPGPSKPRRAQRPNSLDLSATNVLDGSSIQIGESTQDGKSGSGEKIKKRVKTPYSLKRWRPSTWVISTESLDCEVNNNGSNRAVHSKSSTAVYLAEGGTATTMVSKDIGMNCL
Chain of Serine/threonine-protein kinase 25 (Homo sapiens) (O00506 whole entry, looked up): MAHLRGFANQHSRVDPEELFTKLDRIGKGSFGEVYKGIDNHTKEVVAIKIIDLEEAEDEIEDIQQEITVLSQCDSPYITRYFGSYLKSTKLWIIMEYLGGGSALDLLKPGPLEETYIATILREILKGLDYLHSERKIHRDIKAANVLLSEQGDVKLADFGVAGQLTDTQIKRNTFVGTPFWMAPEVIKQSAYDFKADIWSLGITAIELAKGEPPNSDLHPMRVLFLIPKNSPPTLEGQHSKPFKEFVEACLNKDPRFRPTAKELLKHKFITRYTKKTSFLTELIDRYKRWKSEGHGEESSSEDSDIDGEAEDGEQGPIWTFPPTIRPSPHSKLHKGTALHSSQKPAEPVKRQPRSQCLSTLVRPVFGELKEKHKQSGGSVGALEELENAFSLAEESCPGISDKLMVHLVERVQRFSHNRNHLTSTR
Chain of 5-hydroxytryptamine receptor 2A (Homo sapiens) (P28223 whole entry): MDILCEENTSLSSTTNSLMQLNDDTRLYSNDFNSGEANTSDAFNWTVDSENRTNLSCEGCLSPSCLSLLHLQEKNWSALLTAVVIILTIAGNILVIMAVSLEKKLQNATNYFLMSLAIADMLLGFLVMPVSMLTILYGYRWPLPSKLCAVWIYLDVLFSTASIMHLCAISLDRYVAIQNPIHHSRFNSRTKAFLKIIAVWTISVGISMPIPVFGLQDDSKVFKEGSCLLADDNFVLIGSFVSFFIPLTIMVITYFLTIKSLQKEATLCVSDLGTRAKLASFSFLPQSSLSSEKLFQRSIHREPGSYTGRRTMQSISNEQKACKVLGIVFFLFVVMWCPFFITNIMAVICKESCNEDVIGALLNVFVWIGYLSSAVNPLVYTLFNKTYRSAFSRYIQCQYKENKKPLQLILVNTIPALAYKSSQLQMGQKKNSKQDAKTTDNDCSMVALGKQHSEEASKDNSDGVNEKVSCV
Chain of Glycogen synthase kinase-3 alpha (Homo sapiens) (P49840 2-483 limits assumed): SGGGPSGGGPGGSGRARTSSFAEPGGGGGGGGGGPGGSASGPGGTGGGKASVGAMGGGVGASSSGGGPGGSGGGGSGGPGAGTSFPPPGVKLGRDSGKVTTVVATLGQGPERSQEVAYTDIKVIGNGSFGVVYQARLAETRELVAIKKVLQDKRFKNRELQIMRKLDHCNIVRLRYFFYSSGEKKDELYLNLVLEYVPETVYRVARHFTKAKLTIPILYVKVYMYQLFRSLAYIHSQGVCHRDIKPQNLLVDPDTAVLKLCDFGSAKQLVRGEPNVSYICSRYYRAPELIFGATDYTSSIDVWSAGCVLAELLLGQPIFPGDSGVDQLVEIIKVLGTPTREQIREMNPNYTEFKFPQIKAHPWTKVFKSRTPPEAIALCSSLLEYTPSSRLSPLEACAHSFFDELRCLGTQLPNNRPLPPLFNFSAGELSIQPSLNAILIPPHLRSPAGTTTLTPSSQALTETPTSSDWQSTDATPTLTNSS
Chain of Tyrosine-protein kinase ITK/TSK (Homo sapiens) (Q08881 whole entry): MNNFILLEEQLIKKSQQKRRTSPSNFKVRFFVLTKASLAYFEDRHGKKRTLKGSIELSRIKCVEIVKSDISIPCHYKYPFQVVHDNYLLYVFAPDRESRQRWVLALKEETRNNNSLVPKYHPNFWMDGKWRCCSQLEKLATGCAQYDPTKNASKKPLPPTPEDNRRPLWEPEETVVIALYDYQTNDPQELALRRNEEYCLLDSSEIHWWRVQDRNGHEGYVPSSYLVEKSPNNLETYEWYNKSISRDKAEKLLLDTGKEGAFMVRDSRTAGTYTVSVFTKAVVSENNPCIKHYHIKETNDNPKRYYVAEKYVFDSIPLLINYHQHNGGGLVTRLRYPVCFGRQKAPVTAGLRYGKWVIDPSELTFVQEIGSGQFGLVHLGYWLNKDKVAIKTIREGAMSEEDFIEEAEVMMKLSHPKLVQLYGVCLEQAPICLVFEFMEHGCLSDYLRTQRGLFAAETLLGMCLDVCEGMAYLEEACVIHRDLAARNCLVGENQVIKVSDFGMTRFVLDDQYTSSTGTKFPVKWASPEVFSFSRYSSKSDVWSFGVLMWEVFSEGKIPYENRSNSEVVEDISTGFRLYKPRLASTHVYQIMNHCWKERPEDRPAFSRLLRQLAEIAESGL
Chain of D(1A) dopamine receptor (Homo sapiens) (P21728 whole entry): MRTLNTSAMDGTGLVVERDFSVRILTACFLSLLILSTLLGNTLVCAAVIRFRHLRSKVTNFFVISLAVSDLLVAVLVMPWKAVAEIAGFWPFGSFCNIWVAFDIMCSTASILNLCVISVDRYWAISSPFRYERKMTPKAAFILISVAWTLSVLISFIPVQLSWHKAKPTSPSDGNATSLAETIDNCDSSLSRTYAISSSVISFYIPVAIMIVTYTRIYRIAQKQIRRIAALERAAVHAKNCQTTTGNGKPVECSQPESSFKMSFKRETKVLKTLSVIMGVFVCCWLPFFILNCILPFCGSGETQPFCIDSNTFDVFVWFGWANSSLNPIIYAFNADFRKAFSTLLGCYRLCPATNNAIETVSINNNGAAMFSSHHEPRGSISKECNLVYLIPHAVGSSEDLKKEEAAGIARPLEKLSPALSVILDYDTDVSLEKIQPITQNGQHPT
Chain of Calcium/calmodulin-dependent protein kinase type 1D (Homo sapiens) (Q8IU85 whole entry, looked up): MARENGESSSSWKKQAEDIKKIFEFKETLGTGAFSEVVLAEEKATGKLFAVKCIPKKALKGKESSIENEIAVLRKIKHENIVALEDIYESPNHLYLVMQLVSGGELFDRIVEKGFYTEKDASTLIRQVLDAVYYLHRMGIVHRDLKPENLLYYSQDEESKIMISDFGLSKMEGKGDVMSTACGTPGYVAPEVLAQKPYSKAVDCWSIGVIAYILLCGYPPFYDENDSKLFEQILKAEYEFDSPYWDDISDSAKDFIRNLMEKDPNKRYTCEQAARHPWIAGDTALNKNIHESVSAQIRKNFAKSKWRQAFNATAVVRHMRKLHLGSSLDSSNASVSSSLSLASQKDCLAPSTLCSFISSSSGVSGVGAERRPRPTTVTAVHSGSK

| SMILES | inhibition (Rattus norvegicus) | residual activity [1] | residual activity [2] | residual activity [3] | residual activity [4] | residual activity [5] | residual activity [6] | residual activity [7] | residual activity [8] | residual activity [9] | residual activity [10] | residual activity [11] | inhibition [12] | residual activity [13] | residual activity [14] | residual activity [15] | residual activity [16] | residual activity [17] | residual activity [18] | inhibition [19] | further results |
| --- | --- | --- | --- | --- | --- | --- | --- | --- | --- | --- | --- | --- | --- | --- | --- | --- | --- | --- | --- | --- | --- |
| Cn1cncc1[C@@](O)(COc1ccc(C#N)cc1-c1ccc(OC(F)(F)F)cc1)c1ccc(C#N)cc1 [A-108] | 9.56% | 100% | 97% | 100% | 6.1% | 100% | 94% | 100% | 100% | 100% | 95% | 100% | -4.18% | 100% | 86% | 98% | 100% | 100% | 95% | 1.23% | residual activity [20]: 100%; residual activity [21]: 100%; residual activity [22]: 100%; residual activity [23]: 100%; residual activity [24]: 100%; residual activity [25]: 92%; residual activity [26]: 100%; residual activity [27]: 100%; residual activity [28]: 90%; residual activity [29]: 100%; inhibition [30]: 6.65%; inhibition [31]: 19%; residual activity [32]: 95%; residual activity [33]: 97%; residual activity [34]: 97%; residual activity [35]: 100%; residual activity [36]: 84%; residual activity [37]: 100% |
| Cn1cncc1[C@](O)(COc1ccc(C#N)cc1-c1ccc(OC(F)(F)F)cc1)c1ccc(C#N)cc1 [ABT-100] | -1.86% | 63% | 100% | 100% | 84% | 77% | 87% | 100% | 56% | 91% | 77% | 100% | -0.429% | 89% | 94% | 99% | 62% | 100% | 91% | -4.82% | residual activity [20]: 100%; residual activity [21]: 72%; residual activity [22]: 91%; residual activity [23]: 84%; residual activity [24]: 98%; residual activity [25]: 92%; residual activity [26]: 95%; residual activity [27]: 75%; residual activity [28]: 100%; residual activity [29]: 86%; inhibition [30]: -0.932%; inhibition [31]: 4.35%; residual activity [32]: 94%; residual activity [33]: 67%; residual activity [34]: 100%; residual activity [35]: 100%; residual activity [36]: 67%; residual activity [37]: 77% |

From ChEMBL document CHEMBL4507257, “Data for DCP probe ABT-100” (2021)
